For 1 molecule, IC50 results are on record in BindingDB's records for doi:10.1021/jm980260f (Sapienza University of Rome, 1999).

This test deals with T1, Gag-Pol polyprotein [588-1027]/[588-1147] (Human immunodeficiency virus 1, UniProt P04585).
T1 construct: 588-1027; 588-1147
Put plainly: HIV-1 RT Assay. As to conditions: pH 7.8; 37 °C.

As to `CCC(C)Sc1nc(O)cc(Cc2c(Cl)cccc2Cl)n1` (stereo unspecified) [2-(butan-2-ylsulfanyl)-6-[(2,6-dichlorophenyl)methyl]-3,4-dihydropyrimidin-4-one], the IC50 (in general, the concentration that gives 50% inhibition) came out at 100 nM.
